Results from ChEMBL document CHEMBL4311969, “Polygala tenuifolia-Acori tatarinowii herbal pair as an inspiration for substituted cinnamic α-asaronol esters: Design, synthesis, anticonvulsant activity, and inhibition of lactate dehydrogenase study” (Eur J Med Chem, 2019).
Values joined by “and” are separate entries in the source; they are usually repeats but may differ in a detail not shown here. Identical values can stand only once. Active and inactive are the calls of the source. No cut-off for these calls is given here.

What was measured:
[1] = system: Mus musculus; experiment: Anticonvulsant activity in Kunming mouse assessed as MES-induced hind limb extension at 100 mg/kg, ip administered 0. 5 to 2 hrs before MES stimulation; assay type: functional, organism-based
[2] = system: Mus musculus; experiment: Anticonvulsant activity in Kunming mouse assessed as MES-induced hind limb extension at 100 mg/kg, ip administered 3 hrs before MES stimulation; assay type: functional, organism-based
[3] = Neurotoxicity against Kunming mouse assessed as time remained in rod at 100 mg/kg, ip administered 0.5 to 2 hrs by rotarod test; assay type: toxicity, organism-based; conditions: in vivo
[4] = species: Homo sapiens; experiment: Inhibition of human LDH1 at 0.5 mM using sodium pyruvate as substrate by UV-VIS spectrophotometry method relative to control
[5] = species: Homo sapiens; experiment: Inhibition of human LDH5 at 0.5 mM using sodium pyruvate as substrate by UV-VIS spectrophotometry method relative to control
[6] = system: Mus musculus; experiment: Anticonvulsant activity in Kunming mouse assessed as MES-induced hind limb extension at 100 mg/kg, ip administered 0. 5 to 4 hrs before MES stimulation relative to control; assay type: functional
[7] = system: Mus musculus; experiment: Anticonvulsant activity in Kunming mouse assessed as reduction in Sc3-MP-induced clonic seizure rate at 300 mg/kg, ip administered 0.5 hrs before Sc3-MP stimulation relative to control; assay type: functional; parameters: scale not given: the % may be the effect or the level left
[8] = system: Mus musculus; experiment: Anticonvulsant activity in Kunming mouse assessed as reduction in Sc3-MP-induced tonic seizure rate at 300 mg/kg, ip administered 0.5 hrs before Sc3-MP stimulation relative to control; assay type: functional; parameters: scale not given: the % may be the effect or the level left
[9] = system: Mus musculus; experiment: Anticonvulsant activity in Kunming mouse assessed as MES-induced hind limb extension at 50 mg/kg, ip administered 0.5 to 4 hrs before MES stimulation relative to control; assay type: functional
[10] = system: Mus musculus; experiment: Anticonvulsant activity in Kunming mouse assessed as reduction in ScPTZ-induced seizure at 300 mg/kg, ip administered 0.25 to 2 hrs before ScPTZ stimulation relative to control; assay type: functional; parameters: scale not given: the % may be the effect or the level left
[11] = system: Mus musculus; experiment: Anticonvulsant activity in Kunming mouse assessed as reduction in ScPTZ-induced seizure at 100 mg/kg, ip administered 0.25 to 2 hrs before ScPTZ stimulation relative to control; assay type: functional
[12] = system: Mus musculus; experiment: Anticonvulsant activity in Kunming mouse assessed as reduction in ScPTZ-induced seizure at 100 mg/kg, ip administered 0.25 and 1 hrs before ScPTZ stimulation relative to control; assay type: functional; parameters: scale not given: the % may be the effect or the level left
[13] = system: Mus musculus; experiment: Anticonvulsant activity in Kunming mouse assessed as reduction in ScPTZ-induced clonic seizure at 300 mg/kg, ip administered 0.5 hrs before ScPTZ stimulation relative to control; assay type: functional; parameters: scale not given: the % may be the effect or the level left
[14] = system: Mus musculus; experiment: Anticonvulsant activity in Kunming mouse assessed as reduction in ScPTZ-induced clonic seizure at 100 mg/kg, ip administered 0.5 hrs before ScPTZ stimulation relative to control; assay type: functional; parameters: scale not given: the % may be the effect or the level left
[15] = system: Mus musculus; experiment: Anticonvulsant activity in Kunming mouse assessed as reduction in ScPTZ-induced tonic seizure rate at 300 mg/kg, ip administered 0.5 hrs before ScPTZ stimulation relative to control; assay type: functional; parameters: scale not given: the % may be the effect or the level left
[16] = system: Mus musculus; experiment: Anticonvulsant activity in Kunming mouse assessed as reduction in ScPTZ-induced tonic seizure rate at 100 mg/kg, ip administered 0.5 hrs before ScPTZ stimulation relative to control; assay type: functional; parameters: scale not given: the % may be the effect or the level left
[17] = system: Mus musculus; experiment: Anticonvulsant activity in Kunming mouse assessed as reduction in ScPTZ-induced mortality rate at 300 mg/kg, ip administered 0.5 hrs before ScPTZ stimulation relative to control; assay type: functional; parameters: scale not given: the % may be the effect or the level left
[18] = system: Mus musculus; experiment: Anticonvulsant activity in ip dosed Kunming mouse assessed as MES-induced hind limb extension administered 0.5 hrs before MES stimulation; assay type: functional
[19] = system: Mus musculus; experiment: Anticonvulsant activity in ip dosed Kunming mouse assessed as reduction in ScPTZ-induced seizure administered 0.5 hrs before ScPTZ stimulation; assay type: functional
[20] = system: Mus musculus; experiment: Anticonvulsant activity in Kunming mouse assessed as reduction in Sc3-MP-induced seizure ip dosed measured at 0.5 hrs before Sc3-MP stimulation; assay type: functional
[21] = system: Mus musculus; experiment: […] activity in ip dosed Kunming mouse assessed as reduction in formalin-induced paw licking administered 0.5 hrs before formalin stimulation; assay type: functional
[22] = Neurotoxicity against ip dosed Kunming mouse assessed as time remained in rod measured at 0.5 hrs by rotarod test; assay type: toxicity, organism-based; conditions: in vivo
[23] = Protective index, ratio of TD50 for neurotoxicity against ip dosed Kunming mouse assessed as time remained in rod measured at 0.5 hrs by rotarod test to ED50 for anticonvulsant activity in ip dosed Kunming mouse assessed as MES-induced hind limb extension administered 0.5 hrs; assay type: toxicity, organism-based; conditions: in vivo, read-out: PI
[24] = (§1) Protective index, ratio of TD50 for neurotoxicity against ip dosed Kunming mouse assessed as time remained in rod measured at 0.5 hrs by rotarod test to ED50 for anticonvulsant activity in ip dosed Kunming mouse assessed as reduction in ScPTZ-induced seizure administered 0.5 hrs before ScPTZ stimulation; assay type: toxicity, organism-based; conditions: in vivo, read-out: PI
[25] = as §1, with “Sc3-MP-induced” for “ScPTZ-induced”, “Sc3-MP” for “ScPTZ”; assay type: toxicity, organism-based; conditions: in vivo, read-out: PI
[26] = as §1, with “formalin-induced paw licking” for “ScPTZ-induced seizure”, “formalin” for “ScPTZ”; assay type: toxicity, organism-based; conditions: in vivo, read-out: PI
[27] = system: Mus musculus; experiment: Anticonvulsant activity in Kunming mouse assessed as MES-induced hind limb extension at 50 mg/kg, ip administered 0.5 and 2 hrs before MES stimulation relative to control; assay type: functional
[28] = Drug metabolism in Sprague-Dawley rat assessed as retention time by HPLC/MS analysis; assay type: ADME

| Structure (SMILES) | Activity [1] | Activity [2] | Activity [3] | inhibition [4] | inhibition [5] | Activity [6] | other results |
| --- | --- | --- | --- | --- | --- | --- | --- |
| COc1cc(OC)c(OC)cc1CCCOC(=O)/C=C/c1cc(OC)c(OC)c(OC)c1 | Active | Active | Non-Toxic | < 5% | 9% | 25 - 100% |  |
| COc1cc(OC)c(OC)cc1/C=C/COC(=O)/C=C/c1ccc(Br)cc1 | Active | Active | Non-Toxic | < 5% | < 9% | 25 - 100% | Activity [7]: 100%; Activity [8]: 75%; Activity [9]: 50%; Activity [10]: 50%; Activity [11]: inactive; Activity [12]: 75%; Activity [13]: 100%; Activity [14]: 100%; Activity [15]: 25%; Activity [16]: 100%; Activity [17]: 0%; ED50 [18]: 61.8 mg/kg and 143 µmol/kg; ED50 [19]: 446 µmol/kg and 193 mg/kg; ED50 [20]: > 300 mg/kg and > 692 µmol/kg; ED50 [21]: 105 mg/kg and 243 µmol/kg; TD50 at 0.5 h [22]: 2440 µmol/kg and 1060 mg/kg; selectivity ratio at 0.5 h [23]: 17.1; selectivity ratio at 0.5 h [24]: 5.5; selectivity ratio at 0.5 h [25]: 5; selectivity ratio at 0.5 h [26]: 10.1 |
| COc1cc(OC)c(OC)cc1/C=C/CNC(=O)/C=C/c1cc(OC)c(OC)c(OC)c1 | Active |  | Non-Toxic | < 5% | 9% | 25 - 100% |  |
| COc1cc(OC)c(OC)cc1/C=C/COC(=O)/C=C/c1ccccc1C(F)(F)F | Active | Active | Non-Toxic | < 5% | < 9% | 25 - 100% | Activity [7]: 100%; Activity [8]: 75%; Activity [27]: inactive; Activity [10]: 50%; Activity [11]: inactive; Activity [13]: 100%; Activity [14]: 100%; Activity [15]: 50%; Activity [16]: 100%; Activity [17]: 0%; ED50 [18]: 85.7 mg/kg and 203 µmol/kg; ED50 [19]: > 200 mg/kg and > 474 µmol/kg; ED50 [20]: > 300 mg/kg and > 710 µmol/kg; ED50 [21]: 123 mg/kg and 291 µmol/kg; TD50 at 0.5 h [22]: > 2370 µmol/kg and > 1000 mg/kg; selectivity ratio at 0.5 h [23]: > 11.7; selectivity ratio at 0.5 h [24]: 5; selectivity ratio at 0.5 h [25]: 3.3; selectivity ratio at 0.5 h [26]: > 8.1 |
| COc1cc(OC)c(OC)cc1/C=C/COC(=O)/C=C/c1c(OC)c(OC)c(OC)c(OC)c1OC | Active |  | Non-Toxic | inactive | inactive | inactive |  |
| COc1cc(OC)c(OC)cc1/C=C/COC(=O)/C=C/c1ccccc1Br | Active |  | Non-Toxic | < 5% | < 9% | inactive |  |
| COc1ccc(OC)c(/C=C/C(=O)OC/C=C/c2cc(OC)c(OC)cc2OC)c1 | Active | Active | Non-Toxic |  |  | 25 - 100% |  |
| COc1cc(OC)c(OC)cc1/C=C/COC(=O)/C=C/c1cccc(C(F)(F)F)c1 | Active |  | Non-Toxic | < 5% | < 9% | inactive |  |
| COc1cc(OC)c(OC)cc1/C=C/COC(=O)/C=C/c1cccc(OC)c1OC | Active | Active | Non-Toxic | inactive | inactive | 25 - 100% |  |
| COc1cc(/C=C/C(=O)OC/C=C/c2cc(OC)c(OC)cc2OC)cc(OC)c1 | Active |  | Non-Toxic | inactive | inactive | 25 - 100% |  |
| COc1cc(OC)c(OC)c(OC)c1/C=C/C(=O)O |  |  |  |  |  |  | Retention_time [28]: 81.4 min |
| COc1cc(OC)c(OC)cc1/C=C/COC(=O)/C=C/c1c(OC)cccc1OC | Active | Active | Non-Toxic | inactive | inactive | 25 - 100% |  |
